Experiment [1] relates to HER2. Description: Western blot of HER2 in HCC1954 cells. The class given is cell-based, human. Conditions: THC treatment. The protocol:
FIG. 5. Protein expression in HCC1954 cells. Protein expression analysis by Western blot of total and phosphorylated (i.e., activated) HER2 in response to THC.
(§1) We have now confirmed this observation by Western blot in HCC1954 cells (FIG. 5).
HCC1954 cells were treated with RIPA buffer (50 mM Tris, 150 mM NaCl, 1% NP-40, 0.5% sodium deoxycholate, and 0.1% sodium dodecyl sulfate), containing a cocktail of protease inhibitors (pepstatin, leupeptin, aprotinin, quimostatin, antipain, and phenylmethylsulfonyl fluoride) and phosphatase inhibitors (Na3VO4 and NaF; Sigma Chemical Co., St. Louis, Mo.). Proteins separated by sodium dodecyl sulfate-10% polyacrylamide reducing gels were transferred to polyvinylidene difluoride membranes (Bio-Rad Laboratories, Hercules, Calif.). After blocking with 5% skim milk and 1% bovine serum albumin, membranes were incubated with the anti-ErbB2 antiserum (Santa Cruz Biotechnology, Santa Cruz, Calif.) diluted 1:500 for 3 h at room temperature. […] A chemiluminescence detection system (Amersham Pharmacia Biotech, Piscataway, N.J.) was used to reveal peroxidase. Controls were carried out with an anti-actin monoclonal antibody (MAb; Boehringer Mannheim, Indianapolis, Ind.) diluted 1:5,000 followed by an anti-mouse IgG peroxidase-labeled antibody diluted 1:4,000 (Zymed).
For orientation: A western blot detects proteins with antibodies after separation by electrophoresis.

The test system of experiment [2] is HER2. Description: HER2 degradation in BT474 cells. The class given is cell-based, human. Conditions: THC treatment, previously observed.
From the text: (§2) As discussed in Example 1, we observed these effects using Proximity Ligation assays (PLAs) and Bioluminescence Resonance Energy Transfer (BRET) assays.
as §1

For experiment [3], the target named is T1, HER2-CB2 heteromers (Homo sapiens, UniProt P34972). Put plainly: PLA and BRET assays of HER2-CB2 heteromers in BT474 cells. In kind it is cell-based. The note with it: THC at concentrations that produce anti-tumor responses, previously reported by the applicants. On the procedure:
as §2
(§3) Cells were grown on glass coverslips and fixed in 4% paraformaldehyde, washed with PBS containing 20 mM glycine, permeabilized with the same buffer containing 0.05% Triton® X-100, and washed successively with PBS. HER2-CB2R heteromers were detected using the Duolink in situ Probemarker kit (Olink, Bioscience, Uppsala, Sweden). After 1 h of incubation at 37° C. with the blocking solution in a preheated humidity chamber, cells were incubated overnight in the antibody dilution medium with a mixture of equal amounts of rabbit anti-CB2 antibody (1:50, Cayman Chemical, Ann Arbor, Mich.) directly linked to a plus PLA probe, and rabbit anti-HER2 antibody (1:50, Santa Cruz Biotechnology, Santa Cruz, Calif., US) directly linked to a minus PLA probe. […] Amplification was done with the Duolink II detection reagents red kit, which contains fluorescence nucleotides. […] PLA requires that both receptors be close enough to allow the two different antibody-DNA probes to be able to ligate (<17 nm) ((Soderberg et al., (2008), Methods., 45: 227-232; Trifilieff et al., (2011), BioTechniques, 51: 111-118). If the receptors are within sufficient proximity, a punctate fluorescent signal can be detected by confocal microscopy.

Experiment [4] deals with T1, HER2-CB2 heteromers. Put plainly: In situ proximity ligation assay of HER2-CB2 heteromers in HCC1954 cells. In kind it is cell-based. Also noted: HER2-CB2 heteromer expression in HCC1954 cells; endogenous in cells; host or cells: HCC1954. The note with it: THC treatment.
Experimental: HER2-CB2 heteromer expression in HCC1954 cells. Representative images of the PLA experiments, in response to the indicated treatments.
Cells were grown on glass coverslips and fixed in 4% paraformaldehyde, washed with PBS containing 20 mM glycine, permeabilized with the same buffer containing 0.05% Triton® X-100, and washed successively with PBS. HER2-CB2R heteromers were detected using the Duolink in situ Probemarker kit (Olink, Bioscience, Uppsala, Sweden). After 1 h of incubation at 37° C. with the blocking solution in a preheated humidity chamber, cells were incubated overnight in the antibody dilution medium with a mixture of equal amounts of rabbit anti-CB2 antibody (1:50, Cayman Chemical, Ann Arbor, Mich.) directly linked to a plus PLA probe, and rabbit anti-HER2 antibody (1:50, Santa Cruz Biotechnology, Santa Cruz, Calif., US) directly linked to a minus PLA probe. Cells were washed with wash buffer A at room temperature and incubated in a preheated humidity chamber for 30 min at 37° C. with the ligation solution (Duolink® II ligation stock, 1:5, and Duolink II ligase, 1:40) to induce annealing and ligation of the two DNA probes. Amplification was done with the Duolink II detection reagents red kit, which contains fluorescence nucleotides. After exhaustive washing at room temperature with wash buffer B, cells were mounted using mounting medium with DAPI. […]
The target in experiment [5] is T1, HER2-CB2 heteromers. Put plainly: Co-immunoprecipitation of HER2 and CB2-HA in BT474 cells. The class given is cell-based. Conditions: BT474 cells transfected with CB2-HA; 3 μM THC for 4 h. On the procedure:
(§4) FIG. 3. Western blot analysis of HER2 and CB2 in the indicated cell lines. Cells were transfected with a CB2-HA encoding plasmid and treated with THC for 4 h. HER2 was then immune-precipitated with an anti-HER2 antibody, and blots were developed with anti-HA antibodies.
(§5) HCC1954 and BT474 cells were transiently transfected with pcDNA3-HA-hCB2 or the corresponding empty vector (pcDNA3), using Fugene HD Transfection Reagent (Promega, Madison, Wis.). 48 h after transfection, cells were treated with 3 μM THC or the corresponding vehicle (DMSO) for 4 h, and lysed using a specific buffer for co-immunoprecipitation (40 mM Hepes pH 7.5, 120 mM NaCl, 1 mM EDTA, 10 mM sodium pyrophosphate, 10 mM sodium glycerophosphate, 50 mM sodium fluoride, 0.5 mM sodium orthovanadate, 0.3% CHAPS and supplemented with 1 mM benzamidine and 0.1 mM PMSF in fresh). Cell lysates (1 mg) were immunoprecipitated using 5 μg of anti-ErbB2 antibody (Neu C-18, Santa Cruz Biotechnology, Santa Cruz, Calif., US) covalently coupled to 5 μL protein G-sepharose. After immunoprecipitation, proteins were separated by SDS-10% polyacrylamide reducing gels and transferred to PVDF membranes. […] Bound antibodies were detected with a donkey anti-rabbit immunoglobulin G (IgG) peroxidase-labeled antibody (GE Healthcare, UK). […]

Experiment [6] addresses T1, HER2-CB2 heteromers. Description: Co-immunoprecipitation of HER2 and CB2-HA in HCC1954 cells. The class given is cell-based. Also noted: HER2-CB2 heteromer expression in HCC1954 cells; endogenous in cells; host or cells: HCC1954. Conditions: HCC1954 cells transfected with CB2-HA; 3 μM THC for 4 h. On the procedure: as §4, §5
In another experiment the test system is HER2-HER2 dimers. Description: In situ proximity ligation assay of HER2-HER2 dimers in HCC1954 cells. The class given is cell-based, human. The note with it: THC treatment. The protocol: FIG. 6. HER2-HER2 dimer expression in HCC1954 cells. Representative images of the PLA experiments, in response to the indicated treatments.
as §3

These results are taken from US10753935B2, “Prognostic method and kits useful in said method” (Zelda Therapeutics Operations Pty Ltd, priority 2016, dated 2020).

T1 sequence (P34972 whole entry, one chain of several): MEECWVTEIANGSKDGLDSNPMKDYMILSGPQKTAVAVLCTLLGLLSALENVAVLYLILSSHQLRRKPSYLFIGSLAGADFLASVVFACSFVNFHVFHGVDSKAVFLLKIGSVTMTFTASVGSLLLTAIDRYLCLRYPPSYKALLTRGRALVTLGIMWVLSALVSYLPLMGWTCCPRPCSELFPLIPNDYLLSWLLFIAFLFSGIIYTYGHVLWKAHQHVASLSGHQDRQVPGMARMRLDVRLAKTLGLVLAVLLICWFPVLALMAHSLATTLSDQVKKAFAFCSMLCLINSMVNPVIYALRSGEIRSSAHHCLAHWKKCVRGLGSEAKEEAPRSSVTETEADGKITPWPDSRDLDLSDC

Take `CCCCCc1cc(O)c2c(c1)OC(C)(C)[C@@H]1CCC(C)=C[C@@H]21` [THC, Δ^9-tetrahydrocannabinol]: the “effect on HER2 protein level (Western blot)” value in the experiment with HER2 [1] was “degradation of HER2”. Besides, the “effect on HER2 protein level” value with HER2 [2] is given as “degradation of HER2”. Further, the “effect on HER2-CB2 heteromers (PLA, BRET)” value on HER2-CB2 heteromers [3] is given as “disrupts HER2-CB2 heteromers”. The “effect on HER2-CB2 heteromers (PLA)” value at HER2-CB2 heteromers [4] is reported as “breaks the heteromers by acting on CB2”. The “effect on HER2-CB2 heteromers (co-IP)” value at HER2-CB2 heteromers [5] and on HER2-CB2 heteromers [6] was “disrupts HER2-CB2 heteromers” each time. The “effect on HER2-HER2 dimers (PLA)” value in the experiment with HER2-HER2 dimers is on record as “disrupts not only HER2-CB2 but also HER2-HER2 dimers”.
